# Test results from PMC6112376, “Comprehensive Analyses and Prioritization of Tox21 10K Chemicals Affecting Mitochondrial Function by in-Depth Mechanistic Studies” (Environmental Health Perspectives, 2018).
# Read-outs that look alike come from different tables or passages of the source. Where a SMILES comes first, the peptide text is derived from it. [ ]: non-standard residue; d: D form. Orn = NCCC[C@H](N)C(=O)O
# Tests used:
# HepG2 cells [1] = conditions: cited from earlier work
# rat primary hepatocytes [2] = experiment: MMP assay in rat primary hepatocytes; conditions: for IC50: Rattus norvegicus, Hepatocyte, read-out: MMP assays IC50 (µM) Rat Hepatocytes
# rat primary hepatocytes [3] = system: rat primary hepatocytes
# HepG2 cells [4] = conditions: for IC50: read-out: MMP assays IC50 (µM) HepG2
# HepG2 cells [5] = experiment: cells; conditions: Homo sapiens; for IC50: HepG2, read-out: MMP assays IC50 (µM) HepG2; for Emax: HepG2, read-out: MMP assays efficacy (%) HepG2
# [6] = read-out: MMP assays IC50 (µM), qHTS-HepG2
# [7] = read-out: MMP assays IC50 (µM) qHTS-HepG2
SMILES,MMP assays IC50 (µM) qHTS-HepG2 (HepG2 cells [1]),MMP assays efficacy (%) qHTS-HepG2 (HepG2 cells [1]),MMP assays IC50 (µM) Rat Hepatocytes (rat primary hepatocytes [2]),MMP assays efficacy (%) Rat Hepatocytes (rat primary hepatocytes [3]),MMP assays IC50 (µM) HepG2 (HepG2 cells [4]),MMP assays efficacy (%) HepG2 (HepG2 cells [4]),IC50 (HepG2 cells [1]; [6]),IC50 (HepG2 cells [4]),IC50 (HepG2 cells [1]; [7]),IC50 (HepG2 cells [5]),Emax (HepG2 cells [5]),IC50 (rat primary hepatocytes [2])
C[C@]12CC[C@@H]3c4ccc(O)cc4CC[C@H]3[C@@H]1CC[C@@H]2OP(=O)(O)O [Estradiol phosphate],inactive,inactive,inactive,inactive,inactive,inactive,,,,,,
CC(=O)O[C@H]1C[C@H](O[C@H]2[C@@H](O)C[C@H](O[C@H]3[C@@H](O)C[C@H](O[C@H]4CC[C@@]5(C)[C@H](CC[C@@H]6[C@@H]5CC[C@]5(C)[C@@H](C7=CC(=O)OC7)[C@@H](O)C[C@]65O)C4)O[C@@H]3C)O[C@@H]2C)O[C@H](C)[C@H]1O[C@@H]1O[C@H](CO)[C@@H](O)[C@H](O)[C@H]1O [Lanatoside B],,-68±14%,inactive,inactive,,-96%,1.1 ± 0.2 µM,0.69 µM,,,,
Cl.Cl.NNCc1ccccc1 [Benzylhydrazine dihydrochloride],,-106±12%,inactive,inactive,,-88%,,19.9 µM,27.8 ± 3.21 µM,,,
CCN(CC)C(=S)[S-].CCN(CC)C(=S)[S-].[Zn+2] [Zinc diethyldithiocarbamate],,-70±15%,,-95±12%,,-63%,,,,,,
"CC(C)C[C@@H]1NC(=O)[C@H](CCCN)NC(=O)[C@H](C(C)C)NC(=O)[C@@H]2CCCN2C(=O)[C@@H](Cc2ccccc2)NC(=O)[C@H](CC(C)C)NC(=O)[C@H](CCCN)NC(=O)[C@H](C(C)C)NC(=O)[C@@H]2CCCN2C(=O)[C@@H](Cc2ccccc2)NC1=O [gramicidin, reference compound] (cyclo(L[dF]PV[Orn]L[dF]PV[Orn]))",,-86±3%,,-112±28%,,-121%,0.51 ± 0.42 µM,,,,,
CN1C(C(=O)Nc2ccccn2)=C(O)c2sccc2S1(=O)=O [Tenoxicam],,-83±17%,,-65±17%,,,8.36 ± 1.07 µM,,,6.6 µM,69%,4.23 ± 3.79 µM
C[C@H]1CCCC(=O)CCC/C=C/c2cc(O)cc(O)c2C(=O)O1 [Zearalenone],,-110±22%,,-68±24%,,,4.67 ± 1.77 µM,,,5.84 µM,115%,22 ± 1.79 µM
CC1(C)[C@H](C(=O)O[C@H](C#N)c2cccc(Oc3ccccc3)c2)[C@@H]1C=C(Br)Br [Deltamethrin],,-75±5%,,-65±42%,,,,,45.9 ± 17.9 µM,50.1 µM,93%,39.8 ± 14.2 µM
COC(=O)Nc1cccc(OC(=O)Nc2cccc(C)c2)c1 [Phenmedipham],,-101±10%,,-95±20%,,,4.41 ± 2.02 µM,,,7.08 µM,107%,19.4 ± 9.11 µM
O=c1cc(-c2ccc(O)cc2)oc2cc(O)cc(O)c12 [Apigenin],,-98±2%,,-66±35%,,,,,1.61 µM,3.55 µM,88%,28.9 ± 9.26 µM
CCCCCCCC(=O)Oc1c(Br)cc(C#N)cc1Br [Bromoxynil octanoate],,-109±13%,,-38±2%,,,,,15.3 ± 5.08 µM,31.6 µM,125%,28.6 ± 22.7 µM
CCC(C)(CC)c1cc(NC(=O)c2c(OC)cccc2OC)on1 [Isoxaben],,-80±23%,inactive,inactive,,,26.3 ± 5.75 µM,,,14.1 µM,60%,
